Reference: patent US20250282768A1 (Janssen Pharmaceutica NV, priority 2022, published 2025)

Tested on: p-IKKa levels in L363 (NIK translocated multiple myeloma) cells
Assay: Assay 2: Effect of compounds on p-IKKa levels in L363 (NIK translocated multiple myeloma) cells
Assay type: cell-based
Settings: Homo sapiens, L-363, 6 h, read-out: Assay 2 IC50 (nM), p-IKKa (Ser 176/180) in BAFF stimulated L363 cells with MG132, 6 h; average if tested more than once
How it was run: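 Read-out is p-IKKa Ser176/180 by AlphaLISA SureFire in lysates. Cells were BAFF-primed (250 ng/ml) overnight or left unstimulated, then exposed 6 h at 37 °C to compound with MG132 (10 μM), 0.3% DMSO. IC50 from sigmoidal curve fit, normalized between stimulated and unstimulated controls.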

## CN1CC[C@@](O)(c2cc(-c3cccc(-c4ccnc(Nc5cnc6c(c5)CCCO6)n4)n3)no2)C1=O [Example 474, (R)-3-(3-(6-(2-((3,4-Dihydro-2H-pyrano[2,3-b]pyridin-6-yl)amino)pyrimidin-4-yl)pyridin-2-yl)isoxazol-5-yl)-3-hydroxy-1-methylpyrrolidin-2-one]
  IC50: < 50 nM

## CN1CC[C@@](O)(c2cc(-c3cccc(-c4ccnc(NC5(C)CC5)n4)n3)no2)C1=O [Example 442, (R)-3-Hydroxy-1-methyl-3-(3-(6-(2-((1-methylcyclopropyl)amino)pyrimidin-4-yl)pyridin-2-yl)isoxazol-5-yl)pyrrolidin-2-one]
  IC50: 50 to 500 nM

## CC(C)[C@H](Nc1nccc(-c2cccc(-c3cc([C@]4(O)CCN(C)C4=O)on3)n2)n1)c1cnn(C)c1 (single isomer, unassigned) [Example 163]
  IC50: 50 to 500 nM

## CN1CC[C@@](O)(c2cc(-c3cccc(-c4ccnc(Nc5cnc(CO)cn5)n4)n3)no2)C1=O [Example 303, (R)-3-Hydroxy-3-(3-(6-(2-((5-(hydroxymethyl)pyrazin-2-yl)amino)pyrimidin-4-yl)pyridin-2-yl)isoxazol-5-yl)-1-methylpyrrolidin-2-one]
  IC50: 50 to 500 nM

## CN1CC[C@@](O)(c2cc(-c3cc(C(F)(F)F)cc(-c4ccnc(Nc5ccn(C)n5)n4)n3)no2)C1=O [Example 2, (R)-3-Hydroxy-1-methyl-3-(3-(6-(2-((1-methyl-1H-pyrazol-3-yl)amino)pyrimidin-4-yl)-4-(trifluoromethyl)pyridin-2-yl)isoxazol-5-yl)pyrrolidin-2-one]
  IC50: < 50 nM

## CN(C)CCn1nccc1Nc1nccc(-c2cccc(-c3cc([C@]4(O)CCN(C)C4=O)on3)n2)n1 [Example 306, (R)-3-(3-(6-(2-((1-(2-(Dimethylamino)ethyl)-1H-pyrazol-5-yl)amino)pyrimidin-4-yl)pyridin-2-yl)isoxazol-5-yl)-3-hydroxy-1-methylpyrrolidin-2-one]
  IC50: > 500 nM

## Cc1cnn(-c2nccc(-c3cccc(-c4cc([C@]5(O)CCN(C)C5=O)on4)n3)n2)c1N [Example 35, (R)-3-(3-(6-(2-(5-Amino-4-methyl-1H-pyrazol-1-yl)pyrimidin-4-yl)pyridin-2-yl)isoxazol-5-yl)-3-hydroxy-1-methylpyrrolidin-2-one]
  IC50: > 500 nM

## C[C@H](Nc1nccc(-c2cccc(-c3cc([C@]4(O)CCN(C)C4=O)on3)n2)n1)C(=O)N1CC(C(F)(F)F)C1 [Example 172, (R)-3-Hydroxy-1-methyl-3-(3-(6-(2-(((S)-1-oxo-1-(3-(trifluoromethyl)azetidin-1-yl)propan-2-yl)amino)pyrimidin-4-yl)pyridin-2-yl)isoxazol-5-yl)pyrrolidin-2-one]
  IC50: 50 to 500 nM

## Cc1c(Nc2nccc(-c3cccc(-c4cc([C@@]5(O)CCN(C)C5=O)on4)n3)n2)cnn1C1CCOCC1 [Example 187, (S)-3-Hydroxy-1-methyl-3-(3-(6-(2-((5-methyl-1-(tetrahydro-2H-pyran-4-yl)-1H-pyrazol-4-yl)amino)pyrimidin-4-yl)pyridin-2-yl)isoxazol-5-yl)pyrrolidin-2-one]
  IC50: < 50 nM

## COCn1ncc(Nc2nccc(-c3cccc(-c4cc([C@]5(O)CCN(C)C5=O)no4)n3)n2)n1 [Example 135, (R)-3-Hydroxy-3-(5-(6-(2-((2-(methoxymethyl)-2H-1,2,3-triazol-4-yl)amino)pyrimidin-4-yl)pyridin-2-yl)isoxazol-3-yl)-1-methylpyrrolidin-2-one]
  IC50: < 50 nM

## CN1CC[C@@](O)(c2csc(-c3cccc(-c4ccnc(Nc5ccn(C)n5)n4)n3)n2)C1=O (single isomer, unassigned) [Example 81]
  IC50: > 500 nM

## CN(C)CCOc1ccc(Nc2nccc(-c3cccc(-c4cc([C@]5(O)CCN(C)C5=O)on4)n3)n2)nn1 [Example 130, (R)-3-(3-(6-(2-((6-(2-(Dimethylamino)ethoxy)pyridazin-3-yl)amino)pyrimidin-4-yl)pyridin-2-yl)isoxazol-5-yl)-3-hydroxy-1-methylpyrrolidin-2-one]
  IC50: 50 to 500 nM

## CN1CC(F)(F)[C@@](O)(c2cc(-c3cccc(-c4ccnc(Nc5ccn(C)n5)n4)n3)no2)C1=O [Example 27, (R)-4,4-Difluoro-3-hydroxy-1-methyl-3-(3-(6-(2-((1-methyl-1H-pyrazol-3-yl)amino)pyrimidin-4-yl)pyridin-2-yl)isoxazol-5-yl)pyrrolidin-2-one]
  IC50: < 50 nM

## CC(Nc1nccc(-c2cccc(-c3cc([C@]4(O)CCN(C)C4=O)on3)n2)n1)c1ncccn1 (stereo partly drawn) [Example 377, (3R)-3-Hydroxy-1-methyl-3-(3-(6-(2-((1-(pyrimidin-2-yl)ethyl)amino)pyrimidin-4-yl)pyridin-2-yl)isoxazol-5-yl)pyrrolidin-2-one]
  IC50: > 500 nM

## CN1CC[C@@](O)(c2cc(-c3cccc(-c4ccnc(Nc5nn(C)c6ccncc56)n4)c3)no2)C1=O [Example 420, (R)-3-Hydroxy-1-methyl-3-(3-(3-(2-((1-methyl-1H-pyrazolo[4,3-c]pyridin-3-yl)amino)pyrimidin-4-yl)phenyl)isoxazol-5-yl)pyrrolidin-2-one]
  IC50: > 500 nM

## CN1CC[C@@](O)(c2cc(-c3cccc(-c4ccnc(Nc5nc(C6CCOCC6)nn5C)n4)n3)no2)C1=O [Example 266, (R)-3-Hydroxy-1-methyl-3-(3-(6-(2-((1-methyl-3-(tetrahydro-2H-pyran-4-yl)-1H-1,2,4-triazol-5-yl)amino)pyrimidin-4-yl)pyridin-2-yl)isoxazol-5-yl)pyrrolidin-2-one]
  IC50: > 500 nM

## C[C@H](Nc1nccc(-c2cccc(-c3cc([C@]4(O)CCN(C)C4=O)on3)n2)n1)C(=O)N1CC(C)(F)C1 [Example 178, (R)-3-(3-(6-(2-(((S)-1-(3-Fluoro-3-methylazetidin-1-yl)-1-oxopropan-2-yl)amino)pyrimidin-4-yl)pyridin-2-yl)isoxazol-5-yl)-3-hydroxy-1-methylpyrrolidin-2-one]
  IC50: 50 to 500 nM

## CN1CC[C@@](O)(c2cc(-c3cccc(-c4ccnc(Nc5cnn(CCN6CCOCC6)c5)n4)n3)no2)C1=O [Example 62, (R)-3-Hydroxy-1-methyl-3-(3-(6-(2-((1-(2-morpholinoethyl)-1H-pyrazol-4-yl)amino)pyrimidin-4-yl)pyridin-2-yl)isoxazol-5-yl)pyrrolidin-2-one]
  IC50: < 50 nM

## CN1CC[C@@](O)(c2cc(-c3cccc(-c4ccnc(NC[C@@H]5C[C@@H]5F)n4)n3)no2)C1=O [Example 345, (R)-3-(3-(6-(2-((((cis)-2-Fluorocyclopropyl)methyl)amino)pyrimidin-4-yl)pyridin-2-yl)isoxazol-5-yl)-3-hydroxy-1-methylpyrrolidin-2-one]
  IC50: 50 to 500 nM

## [2H]C1([2H])N(C)C(=O)[C@](O)(c2cc(-c3cccc(-c4ccnc(Nc5ccn(C)n5)n4)n3)no2)C1([2H])[2H] [Example 8, (R)-3-Hydroxy-1-methyl-3-(3-(6-(2-((1-methyl-1H-pyrazol-3-yl)amino)pyrimidin-4-yl)pyridin-2-yl)isoxazol-5-yl)pyrrolidin-2-one-4,4,5,5-d4]
  IC50: < 50 nM

## CN1CC(F)(F)[C@@](O)(c2cc(-c3cccc(-c4ccnc(Nc5cnn6c5COCC6)n4)n3)no2)C1=O [Example 110, (R)-3-(3-(6-(2-((6,7-Dihydro-4H-pyrazolo[5,1-c][1,4]oxazin-3-yl)amino)pyrimidin-4-yl)pyridin-2-yl)isoxazol-5-yl)-4,4-difluoro-3-hydroxy-1-methylpyrrolidin-2-one]
  IC50: < 50 nM

## CCC(Nc1nccc(-c2cccc(-c3cc([C@]4(O)CCN(C)C4=O)on3)n2)n1)c1ccn(CC)n1 (stereo partly drawn) [Example 391, (3R)-3-(3-(6-(2-((1-(1-Ethyl-1H-pyrazol-3-yl)propyl)amino)pyrimidin-4-yl)pyridin-2-yl)isoxazol-5-yl)-3-hydroxy-1-methylpyrrolidin-2-one]
  IC50: > 500 nM

## [2H]C([2H])([2H])C([2H])([2H])n1cc(Nc2nccc(-c3cccc(-c4cc([C@]5(O)CCN(C)C5=O)on4)n3)n2)cn1 [Example 74, (R)-3-(3-(6-(2-((1-(Ethyl-d5)-1H-pyrazol-4-yl)amino)pyrimidin-4-yl)pyridin-2-yl)isoxazol-5-yl)-3-hydroxy-1-methylpyrrolidin-2-one]
  IC50: < 50 nM

## Cc1nn(CC(F)F)cc1Nc1nccc(-c2cccc(-c3cc([C@]4(O)CCN(C)C4=O)on3)n2)n1 [Example 57, (R)-3-(3-(6-(2-((1-(2,2-Difluoroethyl)-3-methyl-1H-pyrazol-4-yl)amino)pyrimidin-4-yl)pyridin-2-yl)isoxazol-5-yl)-3-hydroxy-1-methylpyrrolidin-2-one]
  IC50: < 50 nM

## C[C@H](Nc1nccc(-c2cccc(-c3cc([C@]4(O)CCN(C)C4=O)on3)n2)n1)C(=O)N1CCCC1 [Example 184, (R)-3-Hydroxy-1-methyl-3-(3-(6-(2-(((S)-1-oxo-1-(pyrrolidin-1-yl)propan-2-yl)amino)pyrimidin-4-yl)pyridin-2-yl)isoxazol-5-yl)pyrrolidin-2-one]
  IC50: 50 to 500 nM

## Cc1nn(CC(F)F)cc1Nc1nccc(-c2cccc(-n3cc([C@]4(O)CCN(C)C4=O)nn3)n2)n1 [Example 144, (R)-3-(1-(6-(2-((1-(2,2-Difluoroethyl)-3-methyl-1H-pyrazol-4-yl)amino)pyrimidin-4-yl)pyridin-2-yl)-1H-1,2,3-triazol-4-yl)-3-hydroxy-1-methylpyrrolidin-2-one]
  IC50: < 50 nM

## COCn1ncc(Nc2nccc(-c3cccc(-c4cc([C@]5(O)CCN(C)C5=O)on4)n3)n2)n1 [Example 311, (R)-3-Hydroxy-3-(3-(6-(2-((2-(methoxymethyl)-2H-1,2,3-triazol-4-yl)amino)pyrimidin-4-yl)pyridin-2-yl)isoxazol-5-yl)-1-methylpyrrolidin-2-one]
  IC50: < 50 nM

## CN1CC[C@@](O)(c2cc(-c3cccc(-c4ccnc(Nc5cc6n(n5)CCOC6)n4)n3)no2)C1=O [Example 432, (R)-3-(3-(6-(2-((6,7-Dihydro-4H-pyrazolo[5,1-c][1,4]oxazin-2-yl)amino)pyrimidin-4-yl)pyridin-2-yl)isoxazol-5-yl)-3-hydroxy-1-methylpyrrolidin-2-one]
  IC50: < 50 nM
